Data taken from patent publication US10981911B2, “Imidazopyrrolopyridine as inhibitors of the JAK family of kinases” (Janssen Pharmaceutica NV, priority 2016, dated 2021).
pIC50: −log10 of the molar value.

Target: Tyk2-JH1JH2 (Homo sapiens (Human), UniProt P29597, C1142A/C936A)
Test: Enzymatic inhibition assay (RapidFire HTMS), Tyk2
Type: biochemical
Conditions: 50 μM ATP, 200 μM substrate
Outline: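 Quenched with 0.5% TFA plus internal-standard peptide; phosphorylated product quantified by RapidFire C4 SPE–ESI-MS, 11-point 1:3 or 1:4 dilutions in duplicate.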

Chain of Tyk2-JH1JH2 (P29597 580-1182 C936A/C1142A): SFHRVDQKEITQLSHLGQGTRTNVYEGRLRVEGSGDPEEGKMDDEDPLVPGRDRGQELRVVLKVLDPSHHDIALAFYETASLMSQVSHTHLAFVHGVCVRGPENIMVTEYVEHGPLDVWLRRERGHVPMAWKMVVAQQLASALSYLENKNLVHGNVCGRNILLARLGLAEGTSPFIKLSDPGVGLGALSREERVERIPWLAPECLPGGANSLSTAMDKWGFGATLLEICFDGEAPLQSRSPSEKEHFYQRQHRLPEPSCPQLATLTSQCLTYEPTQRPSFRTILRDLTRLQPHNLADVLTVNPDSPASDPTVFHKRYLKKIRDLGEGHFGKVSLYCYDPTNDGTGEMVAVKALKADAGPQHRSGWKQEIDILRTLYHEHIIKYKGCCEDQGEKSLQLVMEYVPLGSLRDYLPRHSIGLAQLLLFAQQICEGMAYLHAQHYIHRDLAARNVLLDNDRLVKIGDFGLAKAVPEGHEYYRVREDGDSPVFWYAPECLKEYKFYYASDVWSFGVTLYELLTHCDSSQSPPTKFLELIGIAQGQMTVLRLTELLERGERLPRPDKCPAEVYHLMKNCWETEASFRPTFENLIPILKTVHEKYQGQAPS

SMILES	pIC50
N#CCC12CCC(NC(=O)Cc3nc4cnc5[nH]ccc5c4n3[C@H]3CC[C@H](CC#N)CC3)(CC1)C2 [Ex. 55, N-(4-(Cyanomethyl)bicyclo[2.2.1]heptan-1-yl)-2-(1-((1r,4r)-4-(cyanomethyl)cyclohexyl)-1,6-dihydroimidazo[4,5-d]pyrrolo[2,3-b]pyridin-2-yl)acetamide]	8.33
CC(C)(C#N)CNC(=O)Cc1nc2cnc3[nH]ccc3c2n1[C@H]1CC[C@H](CC#N)CC1 [Ex. 22, N-(2-Cyano-2-methylpropyl)-2-(1-((1r,4r)-4-(cyanomethyl)cyclohexyl)-1,6-dihydroimidazo[4,5-d]pyrrolo[2,3-b]pyridin-2-yl)acetamide]	8.39
N#CC[C@H]1CC[C@H](n2c(CC(=O)NCC3(O)CC3)nc3cnc4[nH]ccc4c32)CC1 [Ex. 85, 2-(1-((1r,4r)-4-(Cyanomethyl)cyclohexyl)-1,6-dihydroimidazo[4,5-d]pyrrolo[2,3-b]pyridin-2-yl)-N-((1-hydroxycyclopropyl)methyl)acetamide]	8.27
CC(C)(O)CNC(=O)Cc1nc2cnc3[nH]ccc3c2n1[C@H]1CC[C@H](CC#N)CC1 [Ex. 1, 2-(1-((1r,4r)-4-(Cyanomethyl)cyclohexyl)-1,6-dihydroimidazo[4,5-d]pyrrolo[2,3-b]pyridin-2-yl)-N-(2-hydroxy-2-methylpropyl)acetamide]	8.16
N#CC[C@H]1CC[C@H](n2c(CC(=O)NCC3(O)CCC3)nc3cnc4[nH]ccc4c32)CC1 [Ex. 34, 2-(1-((1r,4r)-4-(Cyanomethyl)cyclohexyl)-1,6-dihydroimidazo[4,5-d]pyrrolo[2,3-b]pyridin-2-yl)-N-((1-hydroxycyclobutyl)methyl)acetamide]	8.51

Tested on: MDCK-MDR1 cell line
Test: MDCK-MDR1 permeability assay
Type: in vitro ADME
Conditions: @ 5 μM, apical to basolateral, with P-gp inhibitor elacridar (2 μM)
Protocol: Permeability measurements were conducted according to the Cyprotex protocol using the MDCK-MDR1 cell line obtained from the NIH (Rockville, Md., USA). Cells between passage numbers 6-30 were seeded onto a Multiscreen Plate™ (Millipore) at a cell density of 3.4×10^5 cells/cm^2 and cultured for three days before permeability studies were conducted. The cells in this assay form a cohesive sheet of a single cell layer filing the surface area of the culture dish, also known as a confluent monolayer, and on day four the test compound was added to the apical side of the membrane and the transport of the compound across the monolayer was monitored over a time period of 60 min.
Test compounds were dissolved in DMSO at a concentration of 10 mM. The dosing solutions were prepared by diluting test compound with assay buffer (Hanks Balanced Salt Solution), pH 7.4, at a final concentration of 5 μM. For assessment of apical to basolateral (“A-B”) permeability, buffer was removed from the apical compartment and replaced with test compound dosing solution with or without the permeability glycoprotein (“PgP”, “P-gP”, “Pgp” or “P-gp”) inhibitor elacridar (2 μM). For assessment of basolateral to apical (“B-A”) permeability, buffer was removed from the companion plate and replaced with test compound dosing solution. Incubations were carried out in duplicate at 37° C. in an atmosphere of 5% CO2 with a relative humidity of 95%. Each assay included the reference markers propranolol (high permeability) and prazosin (PgP substrate). After incubation for 60 minutes, apical and basolateral samples were diluted and test compounds quantified by LC/MS/MS using an 8-point calibration in the range 0.0039 to 3 μM with appropriate dilution of the samples (receiver dilution factor=1; donor and C0 dilution factor=10). The permeability coefficient (Papp) for each compound was calculated from the following equation: Papp=(dQ/dt)/(C0×S), where dQ/dt is the rate of permeation of the drug across the cells, C0 is the donor compartment concentration at time zero, and S is the area of the cell monolayer.
The second and third columns in Table 7 show the values of Papp(A-B) for the apical-to-basolateral compound transport without (second column) and with a P-gp inhibitor (third column, noted as P^eapp(A-B)) that was elacridar. Papp(A-B) gives an indication of permeation extent across the cells in this assay, which is envisaged to model the transcellular transport across Pgp-expressing cells, such as Pgp-expressing gastrointestinal tract cells. P^eapp(A-B) values (Papp(A-B) in the presence of the P-gp inhibitor) given in column 3 are determined to confirm the role of P-gp in the compound efflux. […] Test compound efflux ratios are given in the fifth column of Table 7 as Papp(B-A)/Papp(A-B) by using the corresponding permeability coefficient values from the fourth and second columns in the same table.

SMILES	MDCK-MDR1 P^eapp(A-B)
N#CC[C@H]1CC[C@H](n2c(CC(=O)NC3CCOCC3)nc3cnc4[nH]ccc4c32)CC1 [Ex. 5, 2-(1-((1r,4r)-4-(Cyanomethyl)cyclohexyl)-1,6-dihydroimidazo[4,5-d]pyrrolo[2,3-b]pyridin-2-yl)-N-(tetrahydro-2H-pyran-4-yl)acetamide]	0.5 10^−6 cm/sec
